In one test the target is Serotonin 5-HT1B (Homo sapiens, UniProt P28222). Kind of test: PDSP binding screen. The note with it: for inhibition at 10 µM: read-out: Ki (nM) or % inhibition at 10 µM: 5-HT1B.
The target of another test is T1, Serotonin 5-HT3 (Homo sapiens, UniProt P46098).
T1 sequence (P46098 24-478): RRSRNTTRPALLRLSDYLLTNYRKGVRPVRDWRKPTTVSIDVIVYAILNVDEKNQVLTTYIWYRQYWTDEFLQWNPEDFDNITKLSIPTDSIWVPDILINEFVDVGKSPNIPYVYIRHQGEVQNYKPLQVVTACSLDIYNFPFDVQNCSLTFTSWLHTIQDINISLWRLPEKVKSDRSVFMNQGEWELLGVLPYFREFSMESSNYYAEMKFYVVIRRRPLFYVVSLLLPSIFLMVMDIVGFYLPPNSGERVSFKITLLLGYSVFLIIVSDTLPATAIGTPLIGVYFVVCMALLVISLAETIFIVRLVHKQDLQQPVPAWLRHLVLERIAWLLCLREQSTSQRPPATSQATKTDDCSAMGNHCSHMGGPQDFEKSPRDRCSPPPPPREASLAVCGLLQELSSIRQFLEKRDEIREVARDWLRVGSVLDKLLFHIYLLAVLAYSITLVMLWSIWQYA
Nature of the test: PDSP binding screen.

The next test has as its target Adrenergic beta3 (Homo sapiens, UniProt P13945). Kind of test: PDSP binding screen.
The target in a further test is Histamine H1 (Homo sapiens, UniProt P35367). Kind of test: PDSP binding screen.
Another test addresses T2, Muscarinic M4 (Homo sapiens, UniProt P08173).
T2 sequence (P08173 1-479): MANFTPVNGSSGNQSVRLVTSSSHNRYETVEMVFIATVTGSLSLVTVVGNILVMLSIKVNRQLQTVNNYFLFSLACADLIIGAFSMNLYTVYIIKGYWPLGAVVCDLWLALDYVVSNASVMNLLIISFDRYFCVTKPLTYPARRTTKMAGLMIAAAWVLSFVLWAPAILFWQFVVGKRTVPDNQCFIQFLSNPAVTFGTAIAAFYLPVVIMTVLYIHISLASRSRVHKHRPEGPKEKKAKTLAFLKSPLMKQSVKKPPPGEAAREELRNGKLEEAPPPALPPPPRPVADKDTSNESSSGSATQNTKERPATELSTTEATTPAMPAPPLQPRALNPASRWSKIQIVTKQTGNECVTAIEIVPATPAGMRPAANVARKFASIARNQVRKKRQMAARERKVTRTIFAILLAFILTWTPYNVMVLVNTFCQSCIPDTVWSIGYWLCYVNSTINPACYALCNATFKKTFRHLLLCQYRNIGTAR
Nature of the test: PDSP binding screen. To be noted: for inhibition at 10 µM: read-out: Ki (nM) or % inhibition at 10 µM: M4.

Another test concerns the target T3, Muscarinic M5 (Homo sapiens, UniProt P08912).
T3 sequence (P08912 1-532): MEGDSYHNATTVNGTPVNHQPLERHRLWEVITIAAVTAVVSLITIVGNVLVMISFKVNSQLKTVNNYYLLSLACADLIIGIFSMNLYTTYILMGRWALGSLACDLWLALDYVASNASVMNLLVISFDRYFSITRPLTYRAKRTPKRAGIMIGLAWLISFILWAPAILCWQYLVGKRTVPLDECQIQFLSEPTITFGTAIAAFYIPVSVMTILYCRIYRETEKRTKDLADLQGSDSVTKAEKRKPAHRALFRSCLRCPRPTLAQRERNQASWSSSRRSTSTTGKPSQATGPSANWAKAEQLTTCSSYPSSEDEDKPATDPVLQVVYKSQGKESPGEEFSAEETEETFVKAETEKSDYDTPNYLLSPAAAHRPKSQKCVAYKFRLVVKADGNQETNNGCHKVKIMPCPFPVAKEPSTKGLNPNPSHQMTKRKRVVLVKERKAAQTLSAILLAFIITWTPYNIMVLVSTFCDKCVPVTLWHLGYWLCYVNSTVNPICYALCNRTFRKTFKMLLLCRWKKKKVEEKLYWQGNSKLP
Nature of the test: PDSP binding screen. The note with it: for inhibition at 10 µM: read-out: Ki (nM) or % inhibition at 10 µM: M5.

A further test deals with GABAA. Nature of the test: PDSP binding screen. To be noted: HCl salts.
Test [1] concerns the target T4, human D3 receptors (Homo sapiens, UniProt P35462). Kind of test: β-arrestin recruitment assay (antagonist mode, competition with dopamine). The format is cell-based. On the set-up: expressed in transfected cells. The note with it: for Emax: percentage of the maximum inhibition of dopamine at EC80 concentration, read-out: Imax (% Control). On the procedure: (§1) Two different assays were used to evaluate the properties of the analogs described above. The receptor binding affinity was measured by radioligand binding assays using [^125I]IABN with D2 or D3 receptors highly expressed HEK293 cells. The functional activity of the analogs was determined using a β-arrestin recruitment assay. The assay was initially conducted in agonist binding mode to confirm that they function as antagonists at the D3 receptor. Once this efficacy was confirmed, the assay was conducted in antagonist mode to determine the ability of the antagonist to compete with dopamine at the D3 receptor. The results of the antagonist mode assay are reported as IC50 values.
CHO-K1 cells which were overexpressed human D3 receptors were cultured in assaycomplete^TM cell culture kit 107. Cells were seeded at a density of 25,000 cells per well of 96-well plate, and incubated at 5% CO2, 37 °C. Two days later, test compounds were dissolved in DMSO, and diluted with 11-point series in phosphate-buffered saline (PBS). Prepared compounds were added to the cells, and it was incubated for 30 min at 5% CO2, 37 °C. Then, cells were treated with 30 nM (EC80) of dopamine, and the plate was incubated another 90 min. PathHunter^TM detection reagent was added to each well, and then plate was incubated for 80 min at RT in the dark. The chemiluminescent signal was measured by PerkinElmer Enspire plate reader (PerkinElmer, Boston, MA). Data were analyzed by Prism followed by non-linear regression.
(Recruitment of arrestin is a read-out of receptor activation apart from second messengers.)

Test [2] deals with T4, human D3 receptors. Kind of test: Radioligand binding assay with [125I]IABN, D3 receptor. The note with it: for Ki: D3 receptors expressed in HEK cells, mean ± SEM, three experiments, HCl salts; for D2/D3: selectivity ratio of Ki D2 / Ki D3 (fold). On the set-up: expressed in transfected cells; host or cells: HEK293. On the procedure:
as §1
Ki values for D2 and D3 receptors were measured using [^125I]IABN in human D2 and D3 receptors expressed in HEK cells, respectively. A filtration binding assay was used to characterize membrane-associated receptor binding properties. The details for the procedures were described in the literature.

Where [3] appears, read: potency for D3 receptors, CHO-K1 cells, vs 30 nM (EC80) dopamine, mean ± SD, three experiments, read-out: IC50.
Setting [4] is: [125I]IABN, read-out: Ki ± SEM (nM) D3.

The structures appear in SMILES notation. Read-outs that look alike come from different tables or passages of the source. A value given as a limit tells only on which side of the number the result lay.

Histamine H1, sequence (P35367 whole entry): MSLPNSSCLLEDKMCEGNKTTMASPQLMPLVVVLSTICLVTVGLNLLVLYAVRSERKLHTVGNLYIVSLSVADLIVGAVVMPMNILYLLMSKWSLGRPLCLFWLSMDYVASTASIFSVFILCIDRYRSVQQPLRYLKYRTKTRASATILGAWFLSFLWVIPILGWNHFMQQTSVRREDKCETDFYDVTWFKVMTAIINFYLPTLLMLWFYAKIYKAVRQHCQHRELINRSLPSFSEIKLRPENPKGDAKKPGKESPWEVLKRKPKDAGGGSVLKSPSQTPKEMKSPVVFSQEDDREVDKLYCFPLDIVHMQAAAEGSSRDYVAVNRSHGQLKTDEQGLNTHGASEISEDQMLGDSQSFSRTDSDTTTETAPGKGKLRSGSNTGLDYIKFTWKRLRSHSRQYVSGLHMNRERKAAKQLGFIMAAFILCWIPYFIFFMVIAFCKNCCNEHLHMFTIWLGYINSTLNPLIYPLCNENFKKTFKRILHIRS
Serotonin 5-HT1B, sequence (P28222 whole entry): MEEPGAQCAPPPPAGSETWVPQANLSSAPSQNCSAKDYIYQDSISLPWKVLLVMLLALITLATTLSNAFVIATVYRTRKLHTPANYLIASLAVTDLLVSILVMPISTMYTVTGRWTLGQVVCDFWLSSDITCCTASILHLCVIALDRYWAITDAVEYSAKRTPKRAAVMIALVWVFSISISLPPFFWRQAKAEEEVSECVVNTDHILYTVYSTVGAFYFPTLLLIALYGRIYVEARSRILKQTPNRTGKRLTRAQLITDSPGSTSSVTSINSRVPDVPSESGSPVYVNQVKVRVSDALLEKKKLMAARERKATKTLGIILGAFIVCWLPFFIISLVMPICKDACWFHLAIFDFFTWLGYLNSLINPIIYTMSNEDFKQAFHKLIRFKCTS
Adrenergic beta3, sequence (P13945 whole entry): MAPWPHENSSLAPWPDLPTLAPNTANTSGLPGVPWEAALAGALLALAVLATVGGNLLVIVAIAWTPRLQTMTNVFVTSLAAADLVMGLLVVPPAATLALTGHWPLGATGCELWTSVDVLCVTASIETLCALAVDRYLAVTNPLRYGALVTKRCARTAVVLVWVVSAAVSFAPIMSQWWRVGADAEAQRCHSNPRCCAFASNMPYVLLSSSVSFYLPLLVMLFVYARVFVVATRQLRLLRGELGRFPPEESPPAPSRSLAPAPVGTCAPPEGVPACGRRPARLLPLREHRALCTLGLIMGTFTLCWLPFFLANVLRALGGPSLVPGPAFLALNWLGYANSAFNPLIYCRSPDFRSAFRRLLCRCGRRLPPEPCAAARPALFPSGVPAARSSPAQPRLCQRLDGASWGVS
T4 sequence (P35462 whole entry): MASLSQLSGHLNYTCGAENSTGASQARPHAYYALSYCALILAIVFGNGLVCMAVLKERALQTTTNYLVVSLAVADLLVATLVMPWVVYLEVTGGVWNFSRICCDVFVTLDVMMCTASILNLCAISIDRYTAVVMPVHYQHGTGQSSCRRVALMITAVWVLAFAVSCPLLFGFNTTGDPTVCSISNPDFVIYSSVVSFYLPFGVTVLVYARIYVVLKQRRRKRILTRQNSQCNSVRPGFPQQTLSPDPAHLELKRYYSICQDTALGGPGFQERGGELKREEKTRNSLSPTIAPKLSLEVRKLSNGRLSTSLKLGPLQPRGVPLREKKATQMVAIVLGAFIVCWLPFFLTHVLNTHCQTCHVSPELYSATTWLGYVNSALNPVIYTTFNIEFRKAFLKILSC

The term inhibition denotes the change of the read-out against control, counted positive when it falls. As a reminder, the Ki is the dissociation constant of the complex between target and ligand, obtained from inhibition or displacement. In general, IC50 refers to the concentration at which inhibition is half-maximal. Consider `CCN(CCCNC(=O)c1cc2ccccc2n1C)CCNC(=O)c1cc(Br)cc(OC)c1OC` [21j, N-(3-((2-(5-Bromo-2,3-dimethoxybenzamido)ethyl)(ethyl)amino)propyl)-1-methyl-1H-indole-2-carboxamide], for which the inhibition at 10 µM on Serotonin 5-HT1B, at Muscarinic M4 and at Muscarinic M5 was under 50% in each case. In addition, the inhibition constant Ki on Serotonin 5-HT3 was determined as 246 nM; at Adrenergic beta3 it was 4360 nM; at Histamine H1, 1470 nM; on human D3 receptors [2] (setting [4]), 3.1 ± 0.5 nM. Besides, the “Ki (nM) or % inhibition at 10 µM: GABAA” value at GABAA is “N/A (N/A; not active means less than 50% inhibition that was obtained in primary binding assay at 10 µM of the compound)”. For the same compound, at human D3 receptors [1], the Emax came out at 81.5 ± 10.1%. Further, at human D3 receptors [1] (setting [3]), the IC50 worked out at 4.8 ± 0.8 nM. For the same compound, the D2/D3 on human D3 receptors [2] worked out at 61.9.

With `CCCN(CCCNC(=O)c1ccc(-c2cccs2)cc1)CCNC(=O)c1cc(Br)cc(OC)c1OC` [20a, 5-Bromo-2,3-dimethoxy-N-(2-(propyl(3-(4-(thiophen-2-yl)benzamido)propyl)amino)ethyl)benzamide], the Ki came to 1050 nM at Serotonin 5-HT1B; 103 nM at Serotonin 5-HT3; 1390 nM on Adrenergic beta3; 1360 nM on Histamine H1; 2.7 ± 0.4 nM at human D3 receptors [2] (setting [4]). The inhibition at 10 µM at Muscarinic M4 and at Muscarinic M5 was under 50% each time. Further, the “Ki (nM) or % inhibition at 10 µM: GABAA” value on GABAA was “N/A (N/A; not active means less than 50% inhibition that was obtained in primary binding assay at 10 µM of the compound)”. Also, the Emax at human D3 receptors [1] was determined as 88.1 ± 20.4%. Besides, on human D3 receptors [1] (setting [3]), the IC50 amounted to 26.5 ± 12.9 nM. The D2/D3 on human D3 receptors [2] is 110.

Regarding `CCN(CCCNC(=O)c1ccc(-c2ccncc2)cc1)CCNC(=O)c1cc(Br)cc(OC)c1OC` [21c, 5-Bromo-N-(2-(ethyl(3-(4-(pyridin-4-yl)benzamido)propyl)amino)ethyl)-2,3-dimethoxybenzamide], the inhibition at 10 µM at Serotonin 5-HT1B and at Adrenergic beta3 (read-out: Ki (nM) or % inhibition at 10 µM: beta3) was under 50% in each case. Also, the Ki on Serotonin 5-HT3 was found to be 58 nM; on Histamine H1, 591 nM; at Muscarinic M4, 930 nM; on Muscarinic M5, 2390 nM; at human D3 receptors [2] (setting [4]) it was 1.1 ± 0.1 nM. Moreover, the “Ki (nM) or % inhibition at 10 µM: GABAA” value at GABAA is recorded as “N/A (N/A; not active means less than 50% inhibition that was obtained in primary binding assay at 10 µM of the compound)”. Moreover, at human D3 receptors [1], the Emax worked out at 78.2 ± 18%. The IC50 on human D3 receptors [1] (setting [3]) was found to be 1.3 ± 1 nM. Further, the D2/D3 at human D3 receptors [2] was 97.3.

For `CCN(CCCNC(=O)c1ccsc1)CCNC(=O)c1cc(Br)cc(OC)c1OC` [21i, N-(3-((2-(5-Bromo-2,3-dimethoxybenzamido)ethyl)(ethyl)amino)propyl)thiophen-e-3-carboxamide], the inhibition at 10 µM on Serotonin 5-HT1B, at Muscarinic M4 and at Muscarinic M5 was under 50% in each case. Besides, the inhibition constant (Ki) was 29 nM at Serotonin 5-HT3, over 10000 nM on Adrenergic beta3, 84 nM on Histamine H1 and 7 ± 0.5 nM on human D3 receptors [2] (setting [4]). The “Ki (nM) or % inhibition at 10 µM: GABAA” value on GABAA is on record as “N/A (N/A; not active means less than 50% inhibition that was obtained in primary binding assay at 10 µM of the compound)”. For the same compound, the Emax at human D3 receptors [1] is 99.6 ± 20.7%. For the same compound, at human D3 receptors [1] (setting [3]), the IC50 came to 2.7 ± 0.2 nM. Moreover, the D2/D3 at human D3 receptors [2] is on record as 43.4.

Turning to `CCN(CCCNC(=O)c1ccc(-c2cccs2)cc1)CCNC(=O)c1cc(Br)cc(OC)c1OC` [9a, 5-Bromo-N-(2-(ethyl(3-(4-(thiophen-2-yl)benzamido)propyl)amino)ethyl)-2,3-dimethoxybenzamide], the inhibition constant Ki worked out at 905 nM at Serotonin 5-HT1B; 195 nM at Serotonin 5-HT3; 1500 nM at Adrenergic beta3; 1490 nM at Histamine H1; 1600 nM at Muscarinic M4; 5040 nM at Muscarinic M5. For the same compound, the Ki on human D3 receptors [2] (Ki ± SEM (nM) D3, [125I]IABN) was 1 ± 0.01 nM. In addition, the “Ki (nM) or % inhibition at 10 µM: GABAA” value on GABAA is recorded as “N/A (N/A; not active means less than 50% inhibition that was obtained in primary binding assay at 10 µM of the compound)”. Further, on human D3 receptors [1], the IC50 turned out to be 14 ± 7.4 nM. For the same compound, at human D3 receptors [1], the Emax is 67.3 ± 18.9%. The D2/D3 on human D3 receptors [2] was 169.

Values taken from article PMC9820167, “Design and Synthesis of Conformationally Flexible Scaffold as Bitopic Ligands for Potent D3-Selective Antagonists” (International Journal of Molecular Sciences, 2022).
